According to US7718688B2, “Nitrobenzindoles and their use in cancer therapy” (Auckland Uniservices Limited, priority 2004, dated 2010):
pIC50: −log10 of the molar value.

Key:
[1] = One-electron reduction potential E(1) by pulse radiolysis; format: physicochemical; settings: determined by pulse radiolysis
[2] = tested on: SKOV3: human ovarian carcinoma cell line; test: Proliferation IC50 assay, oxic/hypoxic, SKOV3; format: cell-based; settings: Table 3; for pIC50: 4 h exposure under aerobic conditions; for HCR (hypoxic cytotoxicity ratio) SKOV3: IC50(aerobic)/IC10(hypoxic)
[3] = tested on: HT29: human colon cancer cell line; test: Proliferation IC50 assay, oxic/hypoxic, HT29; format: cell-based; settings: for pIC50 / HCR (hypoxic cytotoxicity ratio) HT29: Table 3; for pIC50: 4 h exposure under aerobic conditions; for HCR (hypoxic cytotoxicity ratio) HT29: IC50(aerobic)/IC10(hypoxic)
HT29 clonogens = test: Clonogenic assay (C10), oxic/hypoxic, HT29; format: cell-based, human; settings: for Clonogenic HCR HT29: C10(aerobic)/C10(hypoxic); for Clonogenic C10 HT29 Oxic: concentration to reduce HT29 clonogens to 10% of controls, 4 hr exposure under aerobic conditions
[4] = Hypoxic metabolism with HT29 tumour S9 (HPLC); settings: for k: rate of formation of compound of Formula II: 10 μM with tumour S9 (12 mg/mL protein), 37° C., pH 7.4, NADPH 1 mM, 2 h, products R3, 56, 55, 60
Source text: Metabolism of compounds of Formula I was investigated using S9 preparations from HT29 tumours grown as xenografts in CD-1 mice.

Row | SMILES | E(1): one-electron reduction potential [1] [mV] | pIC50 ([2]; Homo sapiens, SK-OV-3) | HCR (hypoxic cytotoxicity ratio) SKOV3 [2] | pIC50 ([3]; Homo sapiens, HT-29) | HCR (hypoxic cytotoxicity ratio) HT29 [3] | melting point | pIC50 [2] | pIC50 [3] | Clonogenic HCR HT29 (HT29 clonogens) | Clonogenic C10 HT29 Oxic (HT29 clonogens) [µM] | k: rate of formation of compound of Formula II ([4]; hypoxic) [µM/h] | HCR: Hypoxic cytotoxicity ratio for HT29 cell line ([3]; Table 5, as defined in Table 3) | formation of 60 under hypoxic conditions ([4]; 26 at 10 μM with S9, 2 h, hypoxic, HPLC) | formation of 60 under oxic conditions ([4]; 26 at 10 μM with S9, 2 h, oxic, HPLC)
1 | CN(C)CCOc1ccc2[nH]c(C(=O)N3CC(CCl)c4c3cc([N+](=O)[O-])c3c([N+](=O)[O-])cccc43)cc2c1 (stereo not shown) [Compound 2, 1-(Chloromethyl)-3-(5-[2-(dimethylamino)ethoxy]indol-2-carbonyl)-5,6-dinitro-1,2-dihydro-3H-benzo[e]indole] | −467 ± 8 | 5.39 | 2.9 | 5.55 | 2.2 | – | – | – | – | – | – | – | – | –
2 | CN(C)CCOc1ccc2[nH]c(C(=O)N3CC(CCl)c4c3cc([N+](=O)[O-])c3c(C(N)=O)cccc43)cc2c1 (stereo not shown) [Compound 5, 1-(Chloromethyl)-3-{5-[2-(dimethylamino)ethoxy]indol-2-carbonyl}-5-nitro-1,2-dihydro-3H-benzo[e]indole-6-carboxamide] | −481 ± 8 | 4.30 | 18 | 4.64 | 43 | > 350 °C | – | – | – | – | – | – | – | –
3 | CN(C)CCOc1ccc2[nH]c(C(=O)N3CC(CCl)c4c3cc([N+](=O)[O-])c3c(C#N)cccc43)cc2c1 (stereo not shown) [Compound 6, 1-(Chloromethyl)-3-{5-[2-(dimethylamino)ethoxy]indol-2-carbonyl}-5-nitro-1,2-dihydro-3H-benzo[e]indole-6-carbonitrile] | −491 ± 8 | 6.77 | 1.7 | 6.92 | 1.1 | > 300 °C | – | – | – | – | – | – | – | –
4 | CN(C)CCOc1ccc2[nH]c(C(=O)N3CCc4c3cc([N+](=O)[O-])c3c(S(N)(=O)=O)c(CCl)ccc43)cc2c1 [Compound 7, 7-(Chloromethyl)-3-{5-[2-(dimethylamino)ethoxy]indol-2-carbonyl}-5-nitro-1,2-dihydro-3H-benzo[e]indole-6-sulfonamide] | −497 ± 8 | 5.43 | 4.6 | 5.57 | 2.3 | > 320 °C | – | – | – | – | – | – | – | –
5 | COc1cc2cc(C(=O)N3CC(CCl)c4c3cc([N+](=O)[O-])c3cc([N+](=O)[O-])ccc43)[nH]c2c(OC)c1OC (stereo not shown) [Compound 8] | – | – | 78 | – | 12 | – | 4.80 | 4.85 | >16.2 | >25 | – | – | – | –
6 | COc1cc2cc(C(=O)N3CC(CCl)c4c3cc([N+](=O)[O-])c3cc(C(C)=O)ccc43)[nH]c2c(OC)c1OC (stereo not shown) [Compound 11, 7-Acetyl-1-(chloromethyl)-5-nitro-3-(5,6,7-trimethoxyindol-2-carbonyl)-1,2-dihydro-3H-benzo[e]indole] | – | 5.29 | 19 | 5.39 | 5.2 | 257 to 260 °C | – | – | >13.5 | >25 | – | – | – | –
7 | COC(=O)c1ccc2c3c(cc([N+](=O)[O-])c2c1)N(C(=O)c1cc2cc(OCCN(C)C)ccc2[nH]1)CC3CCl (stereo not shown) [Compound 14, Methyl 1-(chloromethyl)-3-{5-[2-(dimethylamino)ethoxy]indol-2-carbonyl}-5-nitro-1,2-dihydro-3H-benzo[e]indole-7-carboxylate] | −429 ± 8 | 6.36 | 1.9 | 6.49 | 1.2 | – | – | – | – | – | – | – | – | –
8 | CN(C)CCOc1ccc2[nH]c(C(=O)N3CC(CCl)c4c3cc([N+](=O)[O-])c3cc(C(N)=O)ccc43)cc2c1 (stereo not shown) [Compound 16, 1-(Chloromethyl)-3-{5-[2-(dimethylamino)ethoxy]indol-2-carbonyl}-5-nitro-1,2-dihydro-3H-benzo[e]indole-7-carboxamide] | −422 ± 10 | 5.41 | – | 5.39 | – | – | – | – | >14 | >25 | 1.48 | – | – | –
9 | COc1cc2cc(C(=O)N3CC(CCl)c4c3cc([N+](=O)[O-])c3cc(C(=O)NCCN(C)C)ccc43)[nH]c2c(OC)c1OC (stereo not shown) [Compound 20, 1-(Chloromethyl)-N-[2-(dimethylamino)ethyl]-5-nitro-3-(5,6,7-trimethoxyindol-2-carbonyl)-1,2-dihydro-3H-benzo[e]indole-7-carboxamide] | −427 ± 12 | 5.70 | 24 | 5.82 | 5.9 | – | – | – | – | – | – | – | – | –
10 | CN(C)CCOc1ccc2[nH]c(C(=O)N3CC(CCl)c4c3cc([N+](=O)[O-])c3cc(C#N)ccc43)cc2c1 (stereo not shown) [Compound 22, 1-(Chloromethyl)-3-{5-[2-(dimethylamino)ethoxy]indol-2-carbonyl}-5-nitro-1,2-dihydro-3H-benzo[e]indole-7-carbonitrile] | −385 ± 8 | 6.09 | – | 6.15 | – | – | – | – | – | – | 1.27 | – | – | –
11 | CN(C)CCOc1ccc2[nH]c(C(=O)N3CC(CCl)c4c3cc([N+](=O)[O-])c3cc(S(C)(=O)=O)ccc43)cc2c1 (stereo not shown) [Compound 24, 1-(Chloromethyl)-3-{5-[2-(dimethylamino)ethoxy]indol-2-carbonyl}-7-(methylsulfonyl)-5-nitro-1,2-dihydro-3H-benzo[e]indole] | −362 ± 8 | 5.89 | 11 | 6.01 | 4.0 | – | – | – | – | – | – | – | – | –
12 | CN(C)CCOc1ccc2[nH]c(C(=O)N3CC(CCl)c4c3cc([N+](=O)[O-])c3cc(S(N)(=O)=O)ccc43)cc2c1 (stereo not shown) [Compound 26, 1-(Chloromethyl)-3-{5-[2-(dimethylamino)ethoxy]indol-2-carbonyl}-5-nitro-1,2-dihydro-3H-benzo[e]indole-7-sulfonamide] | −390 ± 9 | 5.16 | 280 | 5.34 | 330 | – | – | – | >30.9 | >42 | – | 330 | major product of hypoxic metabolism | not detected
13 | CN(C)CCNS(=O)(=O)c1ccc2c3c(cc([N+](=O)[O-])c2c1)N(C(=O)c1cc2cc(OCCN(C)C)ccc2[nH]1)CC3CCl (stereo not shown) [Compound 39, 1-(Chloromethyl)-3-{5-[2-(dimethylamino)ethoxy]indol-2-carbonyl}-N-[2-(dimethylamino)ethyl]-5-nitro-1,2-dihydro-3H-benzo[e]indole-7-sulfonamide] | −357 ± 8 | 6.08 | 130 | 6.14 | 110 | – | – | – | 55 | 6.2 | – | – | – | –
14 | CN(C)CCOc1ccc2[nH]c(C(=O)N3CC(CCl)c4c3cc([N+](=O)[O-])c3ccc(C(N)=O)cc43)cc2c1 (stereo not shown) [Compound 43, 1-(Chloromethyl)-3-{5-[2-(dimethylamino)ethoxy]indol-2-carbonyl}-5-nitro-1,2-dihydro-3H-benzo[e]indole-8-carboxamide] | −447 ± 9 | 5.47 | 34 | 5.55 | 22 | – | – | – | 21.2 | 33 | – | – | – | –
15 | CN(C)CCOc1ccc2[nH]c(C(=O)N3CC(CCl)c4c3cc([N+](=O)[O-])c3ccc(C#N)cc43)cc2c1 (stereo not shown) [Compound 45] | −419 ± 8 | – | 1.5 | – | 1.4 | – | 5.92 | 5.85 | – | – | – | – | – | –
16 | CN(C)CCOc1ccc2[nH]c(C(=O)N3CC(CCl)c4c3cc([N+](=O)[O-])c3ccc(S(C)(=O)=O)cc43)cc2c1 (stereo not shown) [Compound 47, 1-(Chloromethyl)-3-{5-[2-(dimethylamino)ethoxy]indol-2-carbonyl}-8-(methylsulfonyl)-5-nitro-1,2-dihydro-3H-benzo[e]indole] | −420 ± 8 | 5.72 | 2.7 | 6.01 | 1.2 | – | – | – | – | – | – | – | – | –
17 | CN(C)CCOc1ccc2[nH]c(C(=O)N3CC(CCl)c4c3cc([N+](=O)[O-])c3ccc(S(N)(=O)=O)cc43)cc2c1 (stereo not shown) [Compound 49, 1-(Chloromethyl)-3-{5-[2-(dimethylamino)ethoxy]indol-2-carbonyl}-5-nitro-1,2-dihydro-3H-benzo[e]indole-8-sulfonamide] | −456 ± 8 | 5.31 | 21 | 5.05 | 26 | 260 to 265 °C (dec.) | – | – | – | – | – | – | – | –
18 | CN(C)CCOc1ccc2[nH]c(C(=O)N3CC(CCl)c4c3cc([N+](=O)[O-])c3cccc([N+](=O)[O-])c43)cc2c1 (stereo not shown) [Compound 52, 1-(Chloromethyl)-3-{5-[2-(dimethylamino)ethoxy]indol-2-carbonyl}-5,9-dinitro-1,2-dihydro-3H-benzo[e]indole] | −477 ± 7 | 5.92 | 1.5 | 5.85 | 1.3 | – | – | – | – | – | – | – | – | –
